Test results reported in article PMC5017749, “Preclinical Metabolism, Pharmacokinetics and In Vivo Analysis of New Blood-Brain-Barrier Penetrant Fingolimod Analogues: FTY720-C2 and FTY720-Mitoxy” (PLoS ONE, 2016).

Experiments:
[1] = Metabolite profiling and identification in human hepatocytes; format: in vitro ADME; design: key to Source (peak identified in human hepatocytes): R = Rat; hr = Human; lowercase letter indicates low abundance; h: lowercase letter indicates low abundance; conditions: for phosphorylated metabolites / parent peak after 2 hr incubation: human hepatocytes; for parent peak after 2 hr incubation: 1 μM
Protocol: Cryopreserved hepatocytes were grown in culture and incubations were performed to generate samples to measure the formation of FTY720-C2 and FTY720-Mitoxy metabolites. Incubations of 1 mL medium containing 1 million cells and 1 μM of FTY720-C2 and FTY720-Mitoxy were conducted at 37° C in a 5% CO2 incubator for 0, 1 and 2 hr, with gentle shaking. Positive control incubations used a cocktail solution containing 10 μM testosterone and 10 μM diclofenac performed for 0, 1 and 2 hr, under similar conditions to confirm the metabolic activity of the hepatocytes. The reactions were terminated by adding 2 mL acetonitrile containing 0.02% formic acid, and thoroughly mixing with gentle vortexing. Samples were transferred into 6 mL vials and stored in the freezer (-70°C) overnight for protein precipitation. Following overnight precipitations, samples were centrifuged at 3,000 rpm for 10 min to pellet proteins. Supernatants were transferred into clean 6 mL vials and evaporated to dryness using a TurboVap concentrator system. Samples were reconstituted using 600 μL 20% acetonitrile in water, briefly vortexed to resuspend, then aliquoted for LC-MS/MS analysis. Controls incubations also included “No drug control” and “no cell control” samples treated in a similar manner as test article samples.
Metabolite profiling and identification experiments were conducted by LC-MS/MS, composed of an HPLC system consisting of an Agilent Technologies 1200 Series Model G1322A Degasser, Agilent Technologies 1200 Series Model G1312A Binary Pump, Shimadzu HTc autosampler, and Valco Model E60 Flow Diversion Valve, and coupled to an API 4000 mass spectrometer. Separations were accomplished on a Gemini C18 column (150 × 2.0 mm, 5-μm particles; Phenomenex Inc., Torrance, CA), preceded by a SecurityGuard C18 guard column (4.0 × 2.0 mm; Phenomenex Inc.). A two-component mobile phase, consisted of a linear gradient of water containing 0.5% formic acid (v/v) and methanol:acetonitrile (1:1, v/v) containing 0.5% formic acid (v/v), was pumped at 0.3 mL/min. The first 4 min of flow was diverted away from the mass spectrometer. Analysis of the positive control samples was conducted with an HPLC system consisting of two Shimadzu LC-10ATvp pumps and a LEAP Pal autosampler. Separations were accomplished on a Luna C8(2) column (50 × 2.0 mm, 3-μm particles; Phenomenex Inc., Torrance, CA), preceded by a SecurityGuard C18 column (4.0 × 2.0 mm; Phenomenex Inc.). Separation was accomplished with a gradient of water containing 0.2% formic acid and 0.012% NH4OH (v/v) versus acetonitrile at an initial rate of 0.7 mL/min. An API 4000 QTrap mass spectrometer (AB Sciex, Foster City, CA) was used for analysis of positive control samples. Each mass spectrometer used was equipped with an electrospray ionization source and operated in the positive ionization mode. Metabolite identification experiments were performed by recording full scan mass spectral data (Q1MS) for all samples, and selected samples were analyzed to obtain product ion spectra (MS/MS) of test article metabolites identified in the full scan mass spectral data.

PP2A = assay: Protein phosphatase (PP2A) assay in adrenal glands of treated mice; format: in vivo, male C57BL/6 mice; conditions: for increase of PP2A activity in mouse adrenal gland: as compared to untreated controls, route not given; for increase of PP2A activity in adrenal gland: up to 48 hr postdose, vs untreated control mice
Protocol: The objectives of this study were to evaluate the pharmacokinetic profiles of FTY720-C2 and FTY720-Mitoxy following single oral and intravenous (IV) dosing of male mice and to determine blood and tissue levels of both compounds at various postdose time points. Male C57BL/6 mice were 8.4 weeks of age and weighed 20.6–24.8 g on the day of dose administration. Each animal was identified by a unique number via an ear tag with a matching cage tag. Mice were administered (two mice per time point) a single equivalent molar dose of either FTY720-C2 (1 mg/kg) or FTY720-Mitoxy (2 mg/kg) by oral or intravenous administration. As the molecular weight of FTY720-Mitoxy (704.72 g/mol) is ~ two times greater than that of FTY720-C2 (349.51 g/mol), the dose level of FTY720-Mitoxy was double that of FTY720-C2. Details of the design showing group assignments, dose groups, dose levels, as well as blood collection and necropsy time points are shown in Table 2. At the appropriate time points after dosing and blood sample collection for bioanalysis, animals were euthanized by CO2 inhalation until unresponsive, followed by decapitation. Brains were rapidly harvested, rinsed with ice cold saline, blotted dry and bisected along the mid-line. The left and right hemispheres of the brain were weighed separately. Each was placed in separate tubes, immediately flash frozen in liquid nitrogen and stored at -70°C prior to evaluation. All samples were labeled with the test facility study number, animal identification number, dose group, date, collection interval, and tissue identity (left or right brain hemisphere). Adrenal glands from each mouse were also collected and flash frozen.
Adrenal glands from treated mice were homogenized in buffer containing 20 mM imidazole-HCl, 2 mM EDTA, 2 mM EGTA, plus protease inhibitors, at 4°C. The homogenates were centrifuged to remove particulates followed by free phosphate removal on MicrospinTM-G-25 columns (GE Healthcare). Aliquots of supernatants were incubated in 4-Nitrophenyl-phosphate (pNPP) buffer consisting of 50 mM Tris-HCl, pH 7.0, 0.1 mM CaCl2 with threonine-phosphopeptide (KRpTIRR) substrate. The reactions were run for 10 min at 30°C and stopped by placing samples on ice. Phosphate levels were determined by measuring absorbance at 650 nm using a Multiskan Spectrum plate reader (Thermo Scientific, Pittsburgh, PA) and were compared to freshly prepared standards as previously described, but using a malachite green solution prepared according to Fathi et al.. Samples from two mice per time point (n = 2) were assayed in triplicate to confirm technical fidelity.

SMILES | Source (peak identified in human hepatocytes) ([1]; FTY720-C2 incubation, Table 4) | phosphorylated metabolites [1] | parent peak after 2 hr incubation [1] | increase of PP2A activity in mouse adrenal gland (PP2A) | increase of PP2A activity in adrenal gland (PP2A; single IV dose (FTY720-C2 1 mg/kg, FTY720-Mitoxy 2 mg/kg)) [fold] | Source (peak identified in human hepatocytes) ([1]; FTY720-Mitoxy incubation, Table 5) | increase of PP2A activity in adrenal gland (PP2A; single oral dose (FTY720-C2 1 mg/kg, FTY720-Mitoxy 2 mg/kg))
CCCCCCCCc1ccc(CCC(CO)(CO)NC(C)=O)cc1 [FTY720-C2, N-(1-hydroxy-2-(hydroxymethyl)-4-(4-octylphenyl)butan-2-yl)acetamide] | H | never detected | more gradual | ~ 2 fold | 2 | – | –
CCCCCCCCc1ccc(CCC(CO)(CO)NC(=O)CC[P+](c2ccccc2)(c2ccccc2)c2ccccc2)cc1 [FTY720-Mitoxy, N-(1-hydroxy-2-(hydroxymethyl)-4-(4-octylphenyl)butan-2-yl)-3’-triphenylphosphoniumpropanamide] | – | never detected | most FTY720-Mitoxy was still unchanged | ~ 2 fold | – | H | no stimulating effect
